Reference: US9249129B2, “Morpholino substituted urea derivatives as mTOR inhibitors” (CELLZOME LIMITED, priority 2010, dated 2016)

How the values were obtained:
Experiment in all cases: kinobeads assay with mass spectrometry detection of kinases (kinase selectivity profile)
Type in all cases: binding
kinases (kinome) [1] = target: T1, kinases (kinome) (Homo sapiens, UniProt O14965); details: AurA (Other), IPI00298940
T1 construct: determined in kinobeads assays with mass spectrometry detection of kinases as described previously; endogenous in cells; host or cells: cell lysate
T1 sequence (O14965 1-403): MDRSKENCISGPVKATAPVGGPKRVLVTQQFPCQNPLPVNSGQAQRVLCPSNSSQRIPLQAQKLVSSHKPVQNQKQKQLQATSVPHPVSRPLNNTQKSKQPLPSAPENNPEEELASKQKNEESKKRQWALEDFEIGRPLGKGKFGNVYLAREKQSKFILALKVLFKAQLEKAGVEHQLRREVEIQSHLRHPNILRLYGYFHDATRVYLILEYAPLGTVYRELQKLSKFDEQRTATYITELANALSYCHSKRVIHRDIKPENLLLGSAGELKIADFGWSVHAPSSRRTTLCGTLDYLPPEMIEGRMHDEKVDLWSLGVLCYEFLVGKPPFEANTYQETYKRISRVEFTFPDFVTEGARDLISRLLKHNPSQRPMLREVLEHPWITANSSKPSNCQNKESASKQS
From the text: (§1) The protein kinase complement of the human genome (the kinome) was described previously (Manning et al., 2002. Science 298(5600):1912-1934). Sequence accession numbers are defined by the International Protein Index (IPI) (Kersey et al., 2004. Proteomics 4(7):1985-1988).

kinases (kinome) [2] = target: T2, kinases (kinome) (Homo sapiens, UniProt P10398); details: ARAF (TKL), IPI00020578
T2 construct: determined in kinobeads assays with mass spectrometry detection of kinases as described previously; endogenous in cells; host or cells: cell lysate
T2 sequence (P10398 1-606): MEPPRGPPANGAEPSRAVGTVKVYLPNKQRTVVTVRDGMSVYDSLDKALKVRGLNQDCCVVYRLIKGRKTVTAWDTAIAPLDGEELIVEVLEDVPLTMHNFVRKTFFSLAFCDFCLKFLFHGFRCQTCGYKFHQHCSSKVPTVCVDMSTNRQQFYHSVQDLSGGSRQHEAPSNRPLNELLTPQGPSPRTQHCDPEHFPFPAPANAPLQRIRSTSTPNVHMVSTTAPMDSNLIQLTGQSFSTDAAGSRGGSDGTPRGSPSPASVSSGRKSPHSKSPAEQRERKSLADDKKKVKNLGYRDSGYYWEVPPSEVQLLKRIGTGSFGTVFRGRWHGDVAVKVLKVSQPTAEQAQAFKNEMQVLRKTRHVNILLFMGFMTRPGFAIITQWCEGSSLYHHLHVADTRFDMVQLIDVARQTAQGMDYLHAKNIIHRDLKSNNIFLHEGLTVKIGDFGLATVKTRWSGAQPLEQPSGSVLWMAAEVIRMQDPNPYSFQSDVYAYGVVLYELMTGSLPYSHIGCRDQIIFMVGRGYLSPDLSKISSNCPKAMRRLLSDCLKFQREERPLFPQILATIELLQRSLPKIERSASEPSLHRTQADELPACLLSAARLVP
From the text: as §1

kinases (kinome) [3] = target: T3, kinases (kinome) (Homo sapiens, UniProt P42684); details: ARG (TK), IPI00329488
T3 construct: determined in kinobeads assays with mass spectrometry detection of kinases as described previously; endogenous in cells; host or cells: cell lysate
T3 sequence (P42684 whole entry): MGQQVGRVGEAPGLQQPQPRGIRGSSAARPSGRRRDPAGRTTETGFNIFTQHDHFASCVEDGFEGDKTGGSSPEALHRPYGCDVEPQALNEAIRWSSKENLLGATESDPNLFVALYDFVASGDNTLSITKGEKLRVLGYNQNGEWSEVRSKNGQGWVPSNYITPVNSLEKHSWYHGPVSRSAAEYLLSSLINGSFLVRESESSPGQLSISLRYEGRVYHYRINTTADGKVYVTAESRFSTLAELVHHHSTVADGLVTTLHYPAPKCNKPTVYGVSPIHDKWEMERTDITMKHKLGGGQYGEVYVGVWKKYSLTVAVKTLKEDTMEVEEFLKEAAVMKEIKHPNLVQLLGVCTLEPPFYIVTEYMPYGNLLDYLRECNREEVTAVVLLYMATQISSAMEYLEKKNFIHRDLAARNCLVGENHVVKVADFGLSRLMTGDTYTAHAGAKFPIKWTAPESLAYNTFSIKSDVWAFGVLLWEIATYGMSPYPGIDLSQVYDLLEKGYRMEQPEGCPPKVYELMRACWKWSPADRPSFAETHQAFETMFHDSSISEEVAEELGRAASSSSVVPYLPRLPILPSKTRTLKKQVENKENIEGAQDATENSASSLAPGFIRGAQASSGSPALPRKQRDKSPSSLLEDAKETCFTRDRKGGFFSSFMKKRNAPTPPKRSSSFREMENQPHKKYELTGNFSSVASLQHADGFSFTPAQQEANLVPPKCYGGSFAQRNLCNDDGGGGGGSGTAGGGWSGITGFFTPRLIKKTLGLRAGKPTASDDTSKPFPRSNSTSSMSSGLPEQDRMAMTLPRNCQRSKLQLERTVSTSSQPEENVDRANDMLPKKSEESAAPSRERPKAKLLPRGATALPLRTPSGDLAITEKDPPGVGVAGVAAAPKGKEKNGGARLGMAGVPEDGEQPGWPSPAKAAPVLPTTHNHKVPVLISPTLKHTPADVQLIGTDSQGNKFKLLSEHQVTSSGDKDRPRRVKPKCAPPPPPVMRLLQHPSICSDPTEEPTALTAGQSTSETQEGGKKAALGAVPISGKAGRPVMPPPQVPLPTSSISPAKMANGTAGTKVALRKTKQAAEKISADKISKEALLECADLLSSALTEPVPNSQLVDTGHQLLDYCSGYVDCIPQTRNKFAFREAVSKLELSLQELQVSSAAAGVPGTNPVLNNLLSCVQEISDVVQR
From the text: as §1

kinases (kinome) [4] = target: T4, kinases (kinome) (Homo sapiens, UniProt P48730); details: CK1d (CK1), IPI00011102
T4 construct: determined in kinobeads assays with mass spectrometry detection of kinases as described previously; endogenous in cells; host or cells: cell lysate
T4 sequence (P48730 whole entry): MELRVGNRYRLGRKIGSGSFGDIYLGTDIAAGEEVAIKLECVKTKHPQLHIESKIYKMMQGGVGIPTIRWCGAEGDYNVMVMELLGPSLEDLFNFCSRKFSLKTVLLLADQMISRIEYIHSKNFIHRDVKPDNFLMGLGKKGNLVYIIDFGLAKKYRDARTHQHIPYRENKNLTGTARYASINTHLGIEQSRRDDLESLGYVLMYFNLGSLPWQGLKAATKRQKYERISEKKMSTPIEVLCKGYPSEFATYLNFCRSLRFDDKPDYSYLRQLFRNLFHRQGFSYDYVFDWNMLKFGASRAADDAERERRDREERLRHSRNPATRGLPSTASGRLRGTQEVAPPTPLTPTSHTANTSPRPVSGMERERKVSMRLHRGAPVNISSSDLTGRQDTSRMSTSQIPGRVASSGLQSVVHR
From the text: as §1

kinases (kinome) [5] = target: T5, kinases (kinome) (Homo sapiens, UniProt P49674); details: CK1e (CK1), IPI00027729
T5 construct: determined in kinobeads assays with mass spectrometry detection of kinases as described previously; endogenous in cells; host or cells: cell lysate
T5 sequence (P49674 whole entry): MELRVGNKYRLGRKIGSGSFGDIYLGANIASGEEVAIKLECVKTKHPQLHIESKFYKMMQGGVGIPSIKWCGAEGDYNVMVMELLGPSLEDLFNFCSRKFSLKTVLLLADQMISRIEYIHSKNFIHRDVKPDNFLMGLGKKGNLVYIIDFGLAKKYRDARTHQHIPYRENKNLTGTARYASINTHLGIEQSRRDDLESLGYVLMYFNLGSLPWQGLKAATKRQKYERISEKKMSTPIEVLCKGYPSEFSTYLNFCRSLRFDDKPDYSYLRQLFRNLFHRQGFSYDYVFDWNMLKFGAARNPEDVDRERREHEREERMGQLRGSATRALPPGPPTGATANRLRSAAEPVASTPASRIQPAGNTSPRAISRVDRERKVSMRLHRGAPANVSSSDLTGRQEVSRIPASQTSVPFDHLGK
From the text: as §1

kinases (kinome) [6] = target: T6, kinases (kinome) (Homo sapiens, UniProt Q16539); details: p38a (CMGC), IPI00221141
T6 construct: determined in kinobeads assays with mass spectrometry detection of kinases as described previously; endogenous in cells; host or cells: cell lysate
T6 sequence (Q16539 whole entry): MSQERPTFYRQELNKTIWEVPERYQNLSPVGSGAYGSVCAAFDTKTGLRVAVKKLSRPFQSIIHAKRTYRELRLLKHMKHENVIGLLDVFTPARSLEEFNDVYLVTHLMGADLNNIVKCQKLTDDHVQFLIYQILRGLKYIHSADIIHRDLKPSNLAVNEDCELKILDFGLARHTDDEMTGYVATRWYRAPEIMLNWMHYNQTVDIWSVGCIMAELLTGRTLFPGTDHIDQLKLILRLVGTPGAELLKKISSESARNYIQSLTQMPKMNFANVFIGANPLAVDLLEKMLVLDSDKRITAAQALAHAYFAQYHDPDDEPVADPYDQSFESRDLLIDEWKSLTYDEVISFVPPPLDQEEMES
From the text: as §1

kinases (kinome) [7] = target: T7, kinases (kinome) (Homo sapiens, UniProt Q86YV5); details: SgK223 (Other), IPI00739386
T7 construct: determined in kinobeads assays with mass spectrometry detection of kinases as described previously; endogenous in cells; host or cells: cell lysate
T7 sequence (Q86YV5 1-1406): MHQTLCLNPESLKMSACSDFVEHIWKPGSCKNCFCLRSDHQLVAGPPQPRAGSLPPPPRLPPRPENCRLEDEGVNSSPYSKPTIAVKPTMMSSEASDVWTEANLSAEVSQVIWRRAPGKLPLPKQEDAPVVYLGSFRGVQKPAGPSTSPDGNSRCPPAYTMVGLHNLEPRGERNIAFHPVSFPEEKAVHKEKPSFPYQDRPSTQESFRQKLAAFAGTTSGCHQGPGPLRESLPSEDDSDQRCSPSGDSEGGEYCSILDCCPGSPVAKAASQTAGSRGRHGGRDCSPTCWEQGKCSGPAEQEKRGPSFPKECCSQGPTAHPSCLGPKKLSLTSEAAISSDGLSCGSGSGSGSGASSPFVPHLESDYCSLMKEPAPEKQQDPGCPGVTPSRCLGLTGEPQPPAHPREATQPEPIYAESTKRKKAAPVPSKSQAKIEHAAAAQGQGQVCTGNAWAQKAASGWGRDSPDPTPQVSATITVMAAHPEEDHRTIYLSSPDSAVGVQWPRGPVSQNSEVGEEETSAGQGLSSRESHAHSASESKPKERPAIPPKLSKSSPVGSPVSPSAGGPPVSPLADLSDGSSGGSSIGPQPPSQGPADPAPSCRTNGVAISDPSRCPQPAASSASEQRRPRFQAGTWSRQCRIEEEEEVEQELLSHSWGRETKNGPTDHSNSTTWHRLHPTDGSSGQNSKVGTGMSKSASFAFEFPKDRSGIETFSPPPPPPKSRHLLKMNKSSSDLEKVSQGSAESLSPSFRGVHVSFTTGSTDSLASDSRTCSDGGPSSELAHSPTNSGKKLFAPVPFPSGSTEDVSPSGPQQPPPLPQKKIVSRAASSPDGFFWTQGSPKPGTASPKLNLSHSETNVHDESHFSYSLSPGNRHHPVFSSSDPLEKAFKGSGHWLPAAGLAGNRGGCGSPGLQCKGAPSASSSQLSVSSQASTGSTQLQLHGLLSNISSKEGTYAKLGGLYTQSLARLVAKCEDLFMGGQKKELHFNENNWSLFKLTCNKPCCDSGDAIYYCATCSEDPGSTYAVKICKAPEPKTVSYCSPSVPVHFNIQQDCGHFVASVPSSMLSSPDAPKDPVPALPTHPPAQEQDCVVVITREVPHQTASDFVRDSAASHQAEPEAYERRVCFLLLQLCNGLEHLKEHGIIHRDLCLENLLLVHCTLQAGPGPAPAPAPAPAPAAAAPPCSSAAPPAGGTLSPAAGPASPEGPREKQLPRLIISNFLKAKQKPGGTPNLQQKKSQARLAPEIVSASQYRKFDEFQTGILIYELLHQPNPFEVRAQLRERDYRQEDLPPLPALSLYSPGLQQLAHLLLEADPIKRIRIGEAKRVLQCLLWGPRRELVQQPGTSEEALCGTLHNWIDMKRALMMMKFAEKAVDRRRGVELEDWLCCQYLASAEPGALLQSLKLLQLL
From the text: as §1

Row | IC50 (kinases (kinome) [1]) [µM] | IC50 (kinases (kinome) [2]) [µM] | IC50 (kinases (kinome) [3]) [µM] | IC50 (kinases (kinome) [4]) [µM] | IC50 (kinases (kinome) [5]) [µM] | IC50 (kinases (kinome) [6]) [µM] | IC50 (kinases (kinome) [7]) [µM] | Compound
1 | > 10 | > 10 | > 10 | > 10 | > 10 | > 10 | > 10 | C[C@H]1COCCN1c1nc(-c2ccc(NC(=O)NC3CC3)cc2)cc(-c2cccnc2S(C)(=O)=O)n1 [Example 46, (S)-1-cyclopropyl-3-(4-(2-(3-methylmorpholino)-6-(2-(methylsulfonyl)pyridin-3-yl)pyrimidin-4-yl)phenyl)urea]
2 | > 10 | > 10 | > 10 | > 10 | > 10 | > 10 |  | C[C@H]1COCCN1c1nc(-c2ccc(NC(=O)NC3CC3)cc2)cc(-c2ccccc2S(C)(=O)=O)n1 [Example 4, (S)-1-cyclopropyl-3-(4-(2-(3-methylmorpholino)-6-(2-(methylsulfonyl)phenyl)pyrimidin-4-yl)phenyl)urea]
3 | > 10 | > 10 | > 10 | > 10 | > 10 | > 10 | > 10 | C[C@H]1COCCN1c1nc(-c2ccc(NC(=O)NC3CC3)cc2)cc(-c2cc(F)ccc2S(C)(=O)=O)n1 [Example 40, (S)-1-cyclopropyl-3-(4-(6-(5-fluoro-2-(methylsulfonyl)phenyl)-2-(3-methylmorpholino)pyrimidin-4-yl)phenyl)urea]
4 | > 10 | > 10 | > 10 |  | > 10 | > 10 | > 10 | C[C@H]1COCCN1c1nc(-c2ccc(NC(=O)N[C@H]3CCC[C@@H]3O)cc2)cc(-c2cc(F)ccc2S(C)(=O)=O)n1 [Example 76, 1-(4-(6-(5-fluoro-2-(methylsulfonyl)phenyl)-2-((S)-3-methylmorpholino)pyrimidin-4-yl)phenyl)-3-((1S,2S)-2-hydroxycyclopentyl)urea]
5 | > 10 | > 10 | > 10 | > 10 | > 10 | > 10 | > 10 | C[C@H]1COCCN1c1cc(-c2ccccn2)nc(-c2ccc(NC(=O)NCCO)cc2)n1 [Example 43, (S)-1-(2-hydroxyethyl)-3-(4-(4-(3-methylmorpholino)-6-(pyridin-2-yl)pyrimidin-2-yl)phenyl)urea]
6 | > 10 | > 10 | > 10 | > 10 | > 10 | > 10 | > 10 | C[C@H]1COCCN1c1cc(-c2ccccc2S(C)(=O)=O)nc(-c2ccc(NC(=O)NC3CC3)cc2)n1 [Example 6, (S)-1-cyclopropyl-3-(4-(4-(3-methylmorpholino)-6-(2-(methylsulfonyl)phenyl)pyrimidin-2-yl)phenyl)urea]
7 | > 10 | > 10 | > 10 | > 10 | > 10 | > 10 | > 10 | CCNC(=O)Nc1ccc(-c2cc(-c3ccccc3C#N)nc(N3CCOC[C@@H]3C)n2)cc1 [Example 8, (S)-1-(4-(6-(2-cyanophenyl)-2-(3-methylmorpholino)pyrimidin-4-yl)phenyl)-3-ethylurea]
